Assays:
Kv1.3 potassium channel = biological target: T1, Kv1.3 potassium channel (Homo sapiens, UniProt P22001); experiment: Kv1.3 potassium channel blocker activity, automated whole-cell patch clamp (Patchliner); format: cell-based; conditions: CHO-K1 cells stably expressing Kv1.3; whole-cell current, Hill fit
T1 construct: expressed in transfected cells
How it was run: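 Stably transfected CHO-K1 cells, whole-cell automated patch clamp: 100 ms pulses from −90 to +40 mV at 0.1 Hz, 20-pulse trains, cumulative concentrations 30 nM–100 μM without washout (≤0.3% DMSO), external pH 7.4. IC50 from Hill fit of last-pulse peak/AUC normalized to compound-free control.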

hERG channel = biological target: T2, hERG channel (Homo sapiens, UniProt Q12809); experiment: hERG electrophysiology, automated whole-cell patch clamp (Patchliner); format: cell-based; conditions: CHO-K1 cells stably expressing hERG; whole-cell current, Hill fit
T2 construct: expressed in transfected cells
T2 sequence (Q12809 whole entry): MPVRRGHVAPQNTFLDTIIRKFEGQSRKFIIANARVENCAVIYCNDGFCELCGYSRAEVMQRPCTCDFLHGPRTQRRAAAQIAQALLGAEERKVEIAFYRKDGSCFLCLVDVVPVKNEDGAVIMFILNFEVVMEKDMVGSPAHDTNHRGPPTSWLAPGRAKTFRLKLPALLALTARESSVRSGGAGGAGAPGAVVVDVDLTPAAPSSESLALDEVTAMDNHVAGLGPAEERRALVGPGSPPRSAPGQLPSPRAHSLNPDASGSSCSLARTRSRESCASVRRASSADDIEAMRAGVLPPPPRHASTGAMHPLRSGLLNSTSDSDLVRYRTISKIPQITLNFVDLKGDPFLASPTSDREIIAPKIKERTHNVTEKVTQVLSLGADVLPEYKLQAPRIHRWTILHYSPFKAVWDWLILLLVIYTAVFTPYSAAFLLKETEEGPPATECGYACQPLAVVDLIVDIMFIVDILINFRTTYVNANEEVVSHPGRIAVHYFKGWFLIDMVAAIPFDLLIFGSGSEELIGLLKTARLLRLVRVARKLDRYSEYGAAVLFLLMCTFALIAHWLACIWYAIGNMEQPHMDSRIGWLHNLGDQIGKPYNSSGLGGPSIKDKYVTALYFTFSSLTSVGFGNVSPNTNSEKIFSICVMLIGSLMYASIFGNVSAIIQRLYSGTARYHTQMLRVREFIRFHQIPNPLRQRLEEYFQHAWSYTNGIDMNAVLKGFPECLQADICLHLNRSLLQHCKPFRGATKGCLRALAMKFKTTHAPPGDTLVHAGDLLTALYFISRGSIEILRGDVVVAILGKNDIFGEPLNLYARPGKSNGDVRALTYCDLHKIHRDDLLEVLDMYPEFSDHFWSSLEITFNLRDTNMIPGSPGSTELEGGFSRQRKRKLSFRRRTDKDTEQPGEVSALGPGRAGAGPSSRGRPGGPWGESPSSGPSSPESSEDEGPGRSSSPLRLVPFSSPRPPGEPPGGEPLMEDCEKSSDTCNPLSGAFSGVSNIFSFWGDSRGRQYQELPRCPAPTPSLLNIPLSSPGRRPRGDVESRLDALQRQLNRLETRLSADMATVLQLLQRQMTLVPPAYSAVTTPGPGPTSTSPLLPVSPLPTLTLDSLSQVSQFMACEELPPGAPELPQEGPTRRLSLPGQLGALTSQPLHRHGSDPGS
Method: Example 10. Evaluation of hERG Activities
This assay is used to evaluate the disclosed compounds' inhibition activities against the hERG channel.
CHO-K1 cells stably expressing hERG were grown in Ham's F-12 Medium with Glutamine containing 10% heat-inactivated FBS, 1% Penicillin/Streptomycin, Hygromycin (100 μg/ml) and G418 (100 μg/ml). Cells were grown in culture flasks at 37° C. in a 5% CO2-humidified incubator.
The cells were bathed in an extracellular solution containing 140 mM NaCl, 4 mM KCl, 2 mM CaCl2), 1 mM MgCl2, 5 mM Glucose, 10 mM HEPES; pH adjusted to 7.4 with NaOH; 295-305 mOsm. The internal solution contained 50 mM KCl, 10 mM NaCl, 60 mM KF, 20 mM EGTA, 10 mM HEPES; pH adjusted to 7.2 with KOH; 285 mOsm. All compounds were dissolved in DMSO at 30 mM. Compound stock solutions were freshly diluted with external solution to concentrations of 30 nM, 100 nM, 300 nM, 1 μM, 3 μM, 10 μM, 30 μM and 100 μM. The highest content of DMSO (0.3%) was present in 100 μM.
The voltage protocol (see Table B) was designed to simulate voltage changes during a cardiac action potential with a 300 ms depolarization to +20 mV (analogous to the plateau phase of the cardiac action potential), a repolarization for 300 ms to −50 mV (inducing a tail current) and a final step to the holding potential of −80 mV. The pulse frequency was 0.3 Hz. Control (compound-free) and compound pulse trains for each compound concentration applied contained 70 pulses.
Whole-cell current recordings and compound application were enabled by means of an automated patch clamp platform Patchliner (Nanion). EPC 10 patch clamp amplifier (HEKA) along with Patchmaster software (HEKA Elektronik Dr. Schulze GmbH) was used for data acquisition. Data were sampled at 10 kHz without filtering. Increasing compound concentrations were applied consecutively to the same cell without washouts in between.
AUC and PEAK values were obtained with Patchmaster (HEKA Elektronik Dr. Schulze GmbH). To determine IC50 the last single pulse in the pulse train corresponding to a given compound concentration was used. Obtained AUC and PEAK values in the presence of compound were normalized to control values in the absence of compound. Using Origin (OridinLab), IC50 was derived from data fit to Hill equation: Icompound/Icontrol=(100−A)/(1+([compound]/IC50)nH)+A, where IC50 is the concentration at which current inhibition is half-maximal, [compound] is the applied compound concentration, A is the fraction of current that is not blocked and nH is the Hill coefficient.

T1 sequence (P22001 whole entry): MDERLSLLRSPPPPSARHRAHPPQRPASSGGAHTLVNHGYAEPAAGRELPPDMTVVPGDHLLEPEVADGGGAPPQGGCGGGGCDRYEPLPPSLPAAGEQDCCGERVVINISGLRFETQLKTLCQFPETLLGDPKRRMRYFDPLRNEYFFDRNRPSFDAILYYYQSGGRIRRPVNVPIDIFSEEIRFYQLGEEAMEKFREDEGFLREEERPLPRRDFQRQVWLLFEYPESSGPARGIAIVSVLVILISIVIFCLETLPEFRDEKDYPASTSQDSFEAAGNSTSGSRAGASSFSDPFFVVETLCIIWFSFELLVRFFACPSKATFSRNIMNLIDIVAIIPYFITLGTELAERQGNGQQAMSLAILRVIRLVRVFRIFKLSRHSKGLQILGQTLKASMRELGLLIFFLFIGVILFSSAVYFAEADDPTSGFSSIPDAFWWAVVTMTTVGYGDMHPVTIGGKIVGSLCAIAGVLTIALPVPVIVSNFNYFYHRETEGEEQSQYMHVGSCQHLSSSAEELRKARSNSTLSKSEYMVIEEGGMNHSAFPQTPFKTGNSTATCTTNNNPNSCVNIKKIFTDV

| IC50 (Kv1.3 potassium channel) | Structure (SMILES) | IC50 (hERG channel) |
| --- | --- | --- |
| < 1 µM | C[C@H](O)[C@H]1NC(=O)[C@@H]2C[C@H](c3c(O)ccc(Cl)c3Cl)CCN2C1=O [Compound 3, (3R,8R,9aS)-8-(2,3-dichloro-6-hydroxyphenyl)-3-[(1S)-1-hydroxyethyl]-hexahydro-2H-pyrido[1,2-a]pyrazine-1,4-dione] | > 30 µM |
| < 1 µM | O=C1NC(=O)N2CC[C@H](c3c(O)ccc(Cl)c3Cl)C[C@@H]12 (single isomer, unassigned; diastereoisomer 1) [Compound 9, 7-(2,3-dichloro-6-hydroxyphenyl)tetrahydro-imidazo[1,5-a]pyridine-1,3(2H,5H)-dione diastereoisomer 1] | > 30 µM |
| < 1 µM | O=C1N[C@H](CO)C(=O)N2CC[C@@H](c3c(O)cc(Cl)c(Cl)c3Cl)C[C@@H]12 [Compound 60, (8R,9aS)-3-((3R)-hydroxymethyl)-8-(2,3,4-trichloro-6-hydroxyphenyl)-hexahydro-2H-pyrido[1,2-a]pyrazine-1,4-dione] | > 30 µM |
| < 1 µM | O=C1[C@@H]2C[C@H](c3c(O)ccc(Cl)c3Cl)CCN2C(=O)CN1CCO (relative stereo) [Compound 7, (8R,9aS)-rel-8-(2,3-dichloro-6-hydroxyphenyl)-2-(2-hydroxyethyl)hexahydro-4H-pyrido[1,2-a]pyrazine-1,4(6H)-dione] | > 30 µM |
| < 1 µM | O=C1NCC(=O)N2CC[C@@H](c3c(O)ccc(Cl)c3Cl)C[C@@H]12 [Compound 41, (8R,9aS)-8-(2,3-dichloro-6-hydroxyphenyl)hexahydro-4H-pyrido[1,2-a]pyrazine-1,4(6H)-dione] | > 30 µM |
| < 1 µM | O=C1[C@H]2C[C@@H](c3c(O)ccc(Cl)c3Cl)CCN2C(=O)CN1C1CNC1 [Compound 64, (8S,9aR)-2-(azetidin-3-yl)-8-(2,3-dichloro-6-hydroxyphenyl)-octahydro-1H-pyrido[1,2-a]pyrazine-1,4-dione] | > 30 µM |
| < 1 µM | O=C1[C@@H]2C[C@H](c3c(O)ccc(Cl)c3Cl)CCN2C(=O)[C@H]2C[C@@H](O)CN12 [Compound 52, (2R,5aS,7R,11aR)-7-(2,3-dichloro-6-hydroxyphenyl)-2-hydroxyhexahydro-1H-pyrido[1,2-a]pyrrolo[1,2-d]pyrazine-5,11(5aH,11aH)-dione] | > 30 µM |
| < 1 µM | O=C1[C@@H]2C[C@H](c3c(O)ccc(Cl)c3Cl)CCN2C(=O)CN1C1CC(O)C1 (single isomer, unassigned; isomer 2) [Compound 44, 8-(2,3-dichloro-6-hydroxyphenyl)-2-[3-hydroxycyclobutyl]-hexahydropyrido[1,2-a]pyrazine-1,4-dione isomer 2] | > 30 µM |
| < 1 µM | O=C1[C@@H]2C[C@H](c3cc(Cl)c(Cl)cc3O)CCN2C(=O)CN1C1CNC1 [Compound 50, (8R,9aS)-2-(azetidin-3-yl)-8-(4,5-dichloro-2-hydroxyphenyl)hexahydro-4H-pyrido[1,2-a]pyrazine-1,4(6H)-dione] | > 30 µM |
| < 1 µM | COC[C@H]1NC(=O)[C@@H]2C[C@H](c3c(O)ccc(Cl)c3Cl)CCN2C1=O (relative stereo) [Compound 55, (8R,9aS)-rel-8-(2,3-dichloro-6-hydroxyphenyl)-3-((3R)-methoxymethyl)-hexahydro-2H-pyrido[1,2-a]pyrazine-1,4-dione] | > 30 µM |
| < 1 µM | O=C1[C@@H]2C[C@H](c3c(O)ccc(Cl)c3Cl)CCN2C(=O)CN1C1CC(O)C1 (single isomer, unassigned; isomer 1) [Compound 14, 8-(2,3-dichloro-6-hydroxyphenyl)-2-[3-hydroxycyclobutyl]-hexahydropyrido[1,2-a]pyrazine-1,4-dione isomer 1] | > 30 µM |
| < 1 µM | O=C1NCCC(=O)N2CCC(c3c(O)ccc(Cl)c3Cl)CC12 (centres unmarked) [Compound 8, 9-(2,3-dichloro-6-hydroxyphenyl)-decahydropyrido[1,2-a][1,4]diazepine-1,5-dione] | > 30 µM |
| < 1 µM | O=C1[C@H]2[C@@H](O)CCN2C(=O)[C@@H]2C[C@H](c3c(O)ccc(Cl)c3Cl)CCN12 [Compound 12, (1S,5aS,7R,11aR)-7-(2,3-dichloro-6-hydroxyphenyl)-1-hydroxyhexahydro-1H-pyrido[1,2-a]pyrrolo[1,2-d]pyrazine-5,11(5aH,11aH)-dione] | > 30 µM |
| < 1 µM | O=C1[C@@H]2C[C@H](c3c(O)ccc(Cl)c3Cl)CCN2C(=O)CN1C1CC(O)C1 (relative stereo) [Compound 20, (8R,9aS)-rel-8-(2,3-dichloro-6-hydroxyphenyl)-2-(3-hydroxycyclobutyl)-hexahydropyrido[1,2-a]pyrazine-1,4-dione] | > 30 µM |
| < 1 µM | O=C1[C@@H]2C[C@H](c3c(O)ccc(Cl)c3Cl)CCN2C(=O)CN1CCO [Compound 26, (8R,9aS)-8-(2,3-dichloro-6-hydroxyphenyl)-2-(2-hydroxyethyl)-hexahydropyrido[1,2-a]pyrazine-1,4-dione] | > 30 µM |
| < 1 µM | O=C1N[C@@H](CO)C(=O)N2CC[C@@H](c3c(O)ccc(Cl)c3Cl)C[C@@H]12 [Compound 53, (3S,8R,9aS)-8-(2,3-dichloro-6-hydroxyphenyl)-3-(hydroxymethyl)hexahydro-4H-pyrido[1,2-a]pyrazine-1,4(6H)-dione] | > 30 µM |
| < 1 µM | CN1C(=O)[C@@H]2C[C@H](c3c(O)ccc(Cl)c3Cl)CCN2C(=O)[C@H]1CO [Compound 6, (3R,8R,9aS)-8-(2,3-dichloro-6-hydroxyphenyl)-3-(hydroxymethyl)-2-methyl-hexahydropyrido[1,2-a]pyrazine-1,4-dione] | > 30 µM |
| < 1 µM | O=C1[C@H]2C[C@H](c3c(O)ccc(Cl)c3Cl)CCN2C(=O)CN1CCO (relative stereo) [Compound 18, (8R,9aR)-rel-8-(2,3-dichloro-6-hydroxyphenyl)-2-(2-hydroxyethyl)-hexahydropyrido[1,2-a]pyrazine-1,4-dione] | > 30 µM |
| < 1 µM | O=C1N[C@H](CO)C(=O)N2CC[C@@H](c3c(O)ccc(Cl)c3Cl)C[C@@H]12 [Compound 2, (3R,8R,9aS)-8-(2,3-dichloro-6-hydroxyphenyl)-3-(hydroxymethyl)-hexahydro-2H-pyrido[1,2-a]pyrazine-1,4-dione] | > 30 µM |

Source: patent US20230040182A1, “ARYL HETEROBICYCLIC COMPOUNDS AS Kv1.3 POTASSIUM SHAKER CHANNEL BLOCKERS” (priority 2019, published 2023)
